From BindingDB's records for doi:10.1111/cbdd.12265 (Birla Institute of Technology, 2014)
pIC50: −log10 of the molar value.

Each compound was assayed against T1, Secreted chorismate mutase (Mycobacterium tuberculosis (strain ATCC 25618 / H37Rv), UniProt P9WIB9) (assay: CM Assay). Settings: 37 °C.
T1 sequence (P9WIB9 whole entry): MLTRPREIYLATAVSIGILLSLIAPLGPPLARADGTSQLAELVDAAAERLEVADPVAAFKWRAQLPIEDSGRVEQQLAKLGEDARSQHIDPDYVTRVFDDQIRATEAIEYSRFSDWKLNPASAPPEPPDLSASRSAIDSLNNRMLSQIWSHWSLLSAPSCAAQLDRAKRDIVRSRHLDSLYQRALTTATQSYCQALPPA
Description: The reaction was initiated by the addition of 150pmoles of enzyme to a mixture of inhibitor (40µM, 20 µM, 10 µM, 5 µM, 1 µM and 0.5 µM ), 20µM chorismic acid in 50mM Tris-HCl, 0.5mM EDTA, 0.1mg/ml BSA, 10mM β-mercaptoethanol (pH-7.5). The assay mixture was incubated at 37°C for 5 min and the reaction was terminated by the addition of 40µL of 1N HCl and further incubation at 37°C for 1 to 5 min. Phenyl pyruvate formed at the end of reaction is converted to chromophoric base with the addition of 80µL 2.5N NaOH. The absorbance of each sample was read at 320nm. Positive control contained the assay mixture with carvacrol(40µM, 20 µM, 10 µM, 5 µM, 1 µM and 0.5 µM ).

| Compound | pIC50 |
| --- | --- |
| O=C1Nc2ccc(N3CCNCC3)cc2C1=O [5‐(piperazin‐1‐yl)‐1H‐indole‐2,3‐dione (Compound 19)] | 4.40 |
| CC(C)(C)C(=O)N1C(=O)C(=O)c2ccccc21 [1‐(2,2‐dimethylpropanoyl)indole‐2,3‐dione (Compound 8)] | 4.39 |
| O=C1Nc2ccc(N3CCN(c4cccc(C(F)(F)F)c4)CC3)cc2C1=O [5‐{4‐[3‐(trifluoromethyl)phenyl]piperazin‐1‐yl}‐1H‐ indole‐2,3‐dione (Compound 21)] | 4.25 |
| O=C1Nc2ccccc2/C1=N/c1nc2ccc([N+](=O)[O-])cc2s1 [(3Z)‐3‐[(6‐nitro‐1,3‐benzothiazol‐2‐yl)imino]‐1H‐ indol‐2‐one (Compound 14)] | < 4.00 |
| O=C1Nc2ccccc2/C1=C/c1ccc([N+](=O)[O-])cc1 [3-(4-nitrobenzylidene)indolin-2-one (Compound 24)] | 6.00 |
| O=NC1C(=O)Nc2ccccc21 (stereo not given) [(3Z)‐3‐(hydroxyimino)‐1H‐indol‐2‐one (Compound 15)] | 4.01 |
| CCN1C(=O)C(=O)c2ccccc21 [1‐ethylindole‐2,3‐dione (Compound 3)] | 4.64 |
| O=C1Nc2ccc(-c3cccc(Cl)c3Cl)cc2C1=O [5‐(2,3‐dichlorophenyl)‐1H‐indole‐2,3‐dione (Compound 17)] | 4.02 |
| O=C1Nc2ccccc2/C1=N/c1ncc([N+](=O)[O-])s1 [(3Z)‐3‐[(5‐nitro‐1,3‐thiazol‐2‐yl)imino]‐1H‐indol‐2‐ one (Compound 13)] | < 4.00 |
| O=C1Nc2ccc(N3CCCCC3)cc2C1=O [5‐(piperidin‐1‐yl)‐1H‐indole‐2,3‐dione (Compound 22)] | 4.59 |
| CC(=O)N1C(=O)C(=O)c2ccccc21 [Acetylisatin (Compound 7)] | 6.00 |
| O=C1Nc2ccccc2/C1=C/c1ccc([N+](=O)[O-])s1 [3-((5-nitrothiophen-2-yl)methylene)indolin-2-one (Compound 25)] | 6.03 |
| O=C1Nc2ccc(N3CCN(C(=O)c4ccco4)CC3)cc2C1=O [5‐[4‐(furan‐2‐carbonyl)piperazin‐1‐yl]‐1H‐indole‐ 2,3‐dione (Compound 23)] | 4.54 |
| NNC(=O)/N=C1\C(=O)Nc2ccccc21 [3‐amino‐1‐[(3Z)‐2‐oxo‐1H‐indol‐3‐ylidene]urea (Compound 10)] | 4.27 |
| CN1CCN(c2ccc3c(c2)C(=O)C(=O)N3)CC1 [5‐(4‐methylpiperazin‐1‐yl)‐1H‐indole‐2,3‐dione (Compound 20)] | 4.50 |
| C=CCN1C(=O)C(=O)c2ccccc21 [1‐(prop‐2‐en‐1‐yl)indole‐2,3‐dione (Compound 5)] | 4.02 |
| Cc1ccc(C)c(-c2ccc3c(c2)C(=O)C(=O)N3)c1 [5‐(2,5‐dimethylphenyl)‐1H‐indole‐2,3‐dione (Compound 18)] | 4.44 |
| O=C1Nc2ccc(-c3ccccc3)cc2C1=O | 4.43 |
| CN1C(=O)C(=O)c2ccccc21 [1-methyl-2,3-dihydro-1H-indole-2,3-dione] | 5.71 |
| CC(=O)N1C(=O)C(=NC(=O)NN)c2ccccc21 [1‐[(3Z)‐1‐acetyl‐2‐oxoindol‐3‐ylidene]‐3‐aminourea (Compound 12)] | 4.60 |
| O=C1C(=O)N(c2ccccc2)c2ccccc21 [1-phenyl-2,3-dihydro-1H-indole-2,3-dione] | 4.63 |
| CC(C)N1C(=O)C(=O)c2ccccc21 [1‐isopropylindole‐2,3‐dione (Compound 4)] | 4.12 |
| CC(=O)n1c(O)c(NC(=S)N=N)c2ccccc21 [1‐[(3Z)‐1‐acetyl‐2‐oxoindol‐3‐ylidene]‐3‐ aminothiourea (Compound 11)] | 4.52 |
| NNC(=S)N=C1C(=O)Nc2ccccc21 [3‐amino‐1‐[(3Z)‐2‐oxo‐1H‐indol‐3‐ylidene]thiourea (Compound 9)] | 4.17 |
| O=C1Nc2ccccc2C1=O [2,3-dihydro-1H-indole-2,3-dione] | 5.97 |
